{"source": "ChEMBL document CHEMBL5625222", "about": "“Design, synthesis, and biological evaluation of 1,6-naphthyridine-2-one derivatives as novel FGFR4 inhibitors for the treatment of colorectal cancer” (Eur J Med Chem, 2023)", "key": {"SW480 [1]": {"system": "SW480", "test": "Antiproliferative activity against human SW480 cells assessed as inhibition of colony formation incubated for 2 weeks by crystal violet staining method", "assay_type": "functional, cell-based"}, "RKO [2]": {"system": "RKO", "test": "Antiproliferative activity against human RKO cells assessed as inhibition of cell growth incubated for 48 hrs by EdU staining method", "assay_type": "functional, cell-based"}, "SW480 [3]": {"system": "SW480", "test": "Induction of cell cycle arrest in human SW480 cells assessed as downregulation of cyclin B1 expression at 1.5 to 6 uM by immunoblotting analysis", "assay_type": "functional, cell-based", "conditions": "dose 1.5-6 µM"}, "HCT-116 [4]": {"system": "HCT-116", "test": "Anti-migration activity in human HCT-116 cells assessed as change in FAK distribution at 3 to 12 uM by immunofluorescence assay", "assay_type": "functional, cell-based", "conditions": "dose 3-12 µM"}, "HCT-116 [5]": {"system": "HCT-116", "test": "Anti-migration activity in human HCT-116 cells assessed as upregulation of E-cad expression by Western blotting analysis", "assay_type": "functional, cell-based"}, "HCT-116 [6]": {"system": "HCT-116", "test": "Anti-migration activity in human HCT-116 cells assessed as change in N-cad expression at 3 to 12 uM by Western blotting analysis", "assay_type": "functional, cell-based", "conditions": "dose 3-12 µM"}, "SW480 [7]": {"system": "SW480", "test": "Anti-migration activity in human SW480 cells assessed as change in N-cad expression at 3 to 12 uM by Western blotting analysis", "assay_type": "functional, cell-based", "conditions": "dose 3-12 µM"}, "RKO [8]": {"system": "RKO", "test": "Anti-migration activity in human RKO cells assessed as change in FAK distribution at 3 to 12 uM by immunofluorescence assay", "assay_type": "functional, cell-based", "conditions": "dose 3-12 µM"}, "RKO [9]": {"system": "RKO", "test": "Anti-migration activity in human RKO cells assessed as upregulation of E-cad expression by Western blotting analysis", "assay_type": "functional, cell-based"}, "RKO [10]": {"system": "RKO", "test": "Anti-migration activity in human RKO cells assessed as downregulation of FAK phosphorylation by Western blotting analysis", "assay_type": "functional, cell-based"}, "RKO [11]": {"system": "RKO", "test": "Anti-migration activity in human RKO cells assessed as change in FAK expression at 3 to 12 uM by Western blotting analysis", "assay_type": "functional, cell-based", "conditions": "dose 3-12 µM"}, "[12]": {"test": "Toxicity in ICR mouse assessed as change in body weight at 60 mg/kg,po administrated for 1 week", "assay_type": "organism-based", "conditions": "in vivo, 168 h, time 1 weeks"}, "[13]": {"test": "Toxicity in ICR mouse assessed as change in spleen weight at 20 mg/kg,po administrated for 1 week", "assay_type": "organism-based", "conditions": "in vivo, 168 h, time 1 weeks"}, "[14]": {"test": "Toxicity in ICR mouse assessed as change in kidney weight at 60 mg/kg,po administrated for 1 week", "assay_type": "organism-based", "conditions": "in vivo, 168 h, time 1 weeks"}, "[15]": {"test": "Hepatotoxicity in ICR mouse assessed as change in serum AST level at 60 mg/kg,po administrated for 1 week", "assay_type": "toxicity, organism-based", "conditions": "in vivo, 168 h, time 1 weeks"}, "[16]": {"test": "Hepatotoxicity in ICR mouse assessed as change in serum ALT level at 20 mg/kg,po administrated for 1 week", "assay_type": "toxicity, organism-based", "conditions": "in vivo, 168 h, time 1 weeks"}, "[17]": {"test": "Toxicity in ICR mouse assessed as histopathological change in liver at 60 mg/kg,po administrated for 1 week by hematoxylin and eosin staining analysis", "assay_type": "organism-based", "conditions": "in vivo, 168 h, time 1 weeks"}, "[18]": {"test": "Toxicity in ICR mouse assessed as histopathological change in kidney at 60 mg/kg,po administrated for 1 week by hematoxylin and eosin staining analysis", "assay_type": "organism-based", "conditions": "in vivo, 168 h, time 1 weeks"}, "[19]": {"test": "Toxicity in BALB/c mouse xenografted with human HCT-116 cells assessed as change in heart weight at 20 mg/kg,ip administrated for 2 weeks", "assay_type": "organism-based", "conditions": "in vivo, 336 h"}, "[20]": {"test": "Toxicity in BALB/c mouse xenografted with human HCT-116 cells assessed as change in lung weight at 10 mg/kg,ip administrated for 2 weeks", "assay_type": "organism-based", "conditions": "in vivo, 336 h"}, "[21]": {"test": "Toxicity in BALB/c mouse xenografted with human HCT-116 cells assessed as change in liver weight at 20 mg/kg,ip administrated for 2 weeks", "assay_type": "organism-based", "conditions": "in vivo, 336 h"}, "[22]": {"test": "Toxicity in BALB/c mouse xenografted with human HCT-116 cells assessed as change in serum ALT level at 10 mg/kg,ip administrated for 2 weeks", "assay_type": "organism-based", "conditions": "in vivo, 336 h"}, "[23]": {"test": "Toxicity in BALB/c mouse xenografted with human HCT-116 cells assessed as change in serum ALT level at 20 mg/kg,ip administrated for 2 weeks", "assay_type": "organism-based", "conditions": "in vivo, 336 h"}, "HCT-116 [24]": {"system": "HCT-116", "test": "Antitumor activity against human HCT-116 cells xenografted in BALB/c mouse assessed as upregulation of E-cad expression in tumor at 10 mg/kg,ip administrated for 2 weeks by Western blotting analysis", "assay_type": "functional, organism-based"}, "HCT-116 [25]": {"system": "HCT-116", "test": "Antitumor activity against human HCT-116 cells xenografted in BALB/c mouse assessed as upregulation of E-cad expression in tumor at 20 mg/kg,ip administrated for 2 weeks by Western blotting analysis", "assay_type": "functional, organism-based"}, "HCT-116 [26]": {"system": "HCT-116", "test": "Antitumor activity against human HCT-116 cells xenografted in BALB/c mouse assessed as downregulation of FAK expression in tumor at 10 mg/kg,ip administrated for 2 weeks by Western blotting analysis", "assay_type": "functional, organism-based"}, "HCT-116 [27]": {"system": "HCT-116", "test": "Antitumor activity against human HCT-116 cells xenografted in BALB/c mouse assessed as downregulation of FGFR4 signalling pathway in tumor at 20 mg/kg,ip administrated for 2 weeks by Western blotting analysis", "assay_type": "functional, organism-based"}, "HCT-116 [28]": {"system": "HCT-116", "test": "Antitumor activity against human HCT-116 cells xenografted in BALB/c mouse assessed as decrease in CD68 expression in tumor tissue at ip administrated for 2 weeks by immunohistochemical analysis", "assay_type": "functional, organism-based"}, "RKO [29]": {"system": "RKO", "test": "cells", "conditions": "Homo sapiens, 48 h", "description": "Antiproliferative activity against human RKO cells assessed as inhibition of cell growth incubated for 48 hrs by MTT assay"}}, "note": "Calls of active or inactive are those of the source. The rule behind the calls is not given here.", "data": [{"compound": "C=CC(=O)NCCCn1c(=O)c(-c2c(Cl)c(OC)cc(OC)c2Cl)cc2cnc(Nc3c(C)cccc3NC(=O)C=C)cc21", "values": [{"measurement": "Activity", "setting": "SW480 [1]", "result": "Dose-Dependent Effect"}, {"measurement": "Activity", "setting": "RKO [2]", "result": "Dose-Dependent Effect"}, {"measurement": "Activity", "setting": "SW480 [3]", "result": "Active"}, {"measurement": "Activity", "setting": "HCT-116 [4]", "result": "Active"}, {"measurement": "Activity", "setting": "HCT-116 [5]", "result": "Dose-Dependent Effect"}, {"measurement": "Activity", "setting": "HCT-116 [6]", "result": "inactive"}, {"measurement": "Activity", "setting": "SW480 [7]", "result": "inactive"}, {"measurement": "Activity", "setting": "RKO [8]", "result": "Active"}, {"measurement": "Activity", "setting": "RKO [9]", "result": "Dose-Dependent Effect"}, {"measurement": "Activity", "setting": "RKO [10]", "result": "Dose-Dependent Effect"}, {"measurement": "Activity", "setting": "RKO [11]", "result": "inactive"}, {"measurement": "Activity", "setting": "[12]", "result": "Non-Toxic"}, {"measurement": "Activity", "setting": "[13]", "result": "Non-Toxic"}, {"measurement": "Activity", "setting": "[14]", "result": "Non-Toxic"}, {"measurement": "Activity", "setting": "[15]", "result": "Non-Toxic"}, {"measurement": "Activity", "setting": "[16]", "result": "Non-Toxic"}, {"measurement": "Activity", "setting": "[17]", "result": "Non-Toxic"}, {"measurement": "Activity", "setting": "[18]", "result": "Non-Toxic"}, {"measurement": "Activity", "setting": "[19]", "result": "Non-Toxic"}, {"measurement": "Activity", "setting": "[20]", "result": "Non-Toxic"}, {"measurement": "Activity", "setting": "[21]", "result": "Non-Toxic"}, {"measurement": "Activity", "setting": "[22]", "result": "Non-Toxic"}, {"measurement": "Activity", "setting": "[23]", "result": "Non-Toxic"}, {"measurement": "Activity", "setting": "HCT-116 [24]", "result": "Active"}, {"measurement": "Activity", "setting": "HCT-116 [25]", "result": "Active"}, {"measurement": "Activity", "setting": "HCT-116 [26]", "result": "Active"}, {"measurement": "Activity", "setting": "HCT-116 [27]", "result": "Active"}, {"measurement": "Activity", "setting": "HCT-116 [28]", "result": "Dose-Dependent Effect"}, {"measurement": "IC50", "setting": "RKO [29]", "result": 11.6, "unit": "µM"}]}]}
